{"source": "patent US11298395B2", "about": "“Isolates from spent turmeric for the management of rheumatoid arthritis” (SAMI LABS LIMITED, priority 2017, dated 2022)", "test_system": "Adjuvant induced rheumatoid arthritis in rats", "experiment": "In vivo anti-arthritic activity: Freund's complete adjuvant induced arthritis in rats", "parameters": "species or system Male Wistar rats", "details": "reference group, dose not given", "description": "Male Wistar rats weighing […] were orally dosed with 100, 200 and 400 mg/kg of spent turmeric polysaccharide from day 1-day 28. The animals were given intra-dermal injection of Freund's complete adjuvant in the paw at a dosage level of 0.1 ml on days 7, 15, 21 and 28 of the study to induce arthritis. Oedema induced by the adjuvant was measured as increase in paw volumes on days 7, 15, 21 and 28. At the end of the study, animals were sacrificed and blood and tissue collected for analyzing the inflammatory parameters. The inflammatory parameters studied included, • a. Inflammation in the paws • b. Blood Biochemistry • c. Lipid Per oxidation • d. Reduced Glutathione in serum • e. Superoxide dismutase activity in serum • f. Levels of Acid and Alkaline phosphatase • g. TNF-α levels • h. IL6 levels"}
{"compound": "CC(=O)Oc1ccccc1C(=O)O", "note": "[ASA, Acetyl salicylic acid]", "values": [{"measurement": "ACP (acid phosphatase)", "result": "6.71 ± 0.06", "unit": "IU/ml"}, {"measurement": "ALP (alkaline phosphatase)", "result": "104.18 ± 0.94", "unit": "IU/ml"}, {"measurement": "LIPID PEROXIDATION malondialdehyde formed", "result": "18.19 ± 0.10", "unit": "nm/g tissue"}, {"measurement": "Platelets", "result": "232 ± 2.65 10^9/L"}, {"measurement": "Red blood corpuscles-RBCs", "result": "4.70 ± 0.04 10^6 Cells /μl"}, {"measurement": "Reduced Glutathione", "result": "595.69 ± 0.64", "unit": "μg/g tissue"}, {"measurement": "SUPEROXIDE DISMUTASE", "result": "16.39 ± 0.01", "unit": "g activity in tissue/min"}, {"measurement": "White blood corpuscles-WBCs", "result": "7800.0 ± 85.63", "unit": "Cells/μl"}]}
